Measurements from US20240262835A1, “PRMT5 INHIBITING COMPOUNDS AND USES THEREOF” (ANTENGENE DISCOVERY LIMITED, priority 2023, published 2024).
Read-outs that look alike come from different tables or passages of the source.

Experiments:
[1] = In vivo pharmacokinetics assay in mice via IV and PO; set-up: species or system ICR mice; conditions: for Mean Concentration In brain / Mean Concentration In plasma / B/P ratio: PO (Group 4 design: 30 mg/kg); for B/P ratio: brain to plasma, one value for 2 h and 4 h
Description: Pharmacokinetics assay for test compounds was performed in mice via IV and PO.
Test compound solution was prepared on the day of administration.
Solvent: IV+PO: 5% DMSO+10% Soultol+85% H2O or saline
Species: ICR mice; SPF level.
Source: Beijing Vital River Laboratory Animal Technology Co., Ltd.
Animal selection: Males. No random grouping
Weighed before dosing, calculated dosage according to body weight. For Groups 1-3, the drug was administered intravenously or intragastrically. For Group 4, the drug administered intragastrically.
For Groups 1-3, at 0.083 h, 0.25 h, 0.5 h, 1 h, 2 h, 4 h, 6 h, 8 h, 24 h, after administration. For Group 4, at 2 h and 4 h after administration.
Blood was collected through the cheeks. For each sample, about 0.05 mL of blood was collected and was added heparin sodium or EDTA-2K as anticoagulant, and was placed on wet ice.
The blood samples were collected and placed on ice and was centrifuged within 1 hour (centrifugation: 6000 g, 3 minutes, 2-8° C.) to separate plasma. Plasma samples were stored in a −80° C. refrigerator prior to analysis.
The pharmacokinetic parameters were calculated using Phoenix WinNonlin8.2.0 based on the blood concentration data at different time points, and AUC0-t, AUC0-∞, MRT0-∞, Cmax, Tmax, and T1/2 and mean values and standard deviations thereof were provided.

[2] = Hepatic metabolic stability (HMS) assay, dog hepatocytes; conditions: dog, cryopreserved hepatocytes
Description: 1) 10 mM test compounds were provided.
(§12) 2) 30 mM positive control stock solutions: Dissolved accurate amount of positive control compounds in dimethyl sulfoxide (DMSO).
(§13) 3) 1000× Stock Solution: Diluted 10 mM test compounds and 30 mM positive control compounds to 1 mM and 3 mM with DMSO in 96-well plates.
(§14) 4) 100× Dosing Solution: Diluted 1 mM test compounds and 3 mM positive control compounds to 100 μM and 300 μM dosing solutions with ACN.
(§15) 5) Preparation of 0.5×10^6/mL cells suspension: cryopreserved cells were thawed, isolated and suspended in Incubation Medium, then diluted with pre-warmed Incubation Medium to 0.5×10^6 cells/mL.
(§16) 6) Add 198 μL of pre-warmed cell suspensions in 96-well plates.
(§17) 7) Preparation of Quenching Plate: Transfer 125 μL of stop solution in a set of pre-labeled 96-well plates.
(§18) 8) Spike 2 μL dosing solution to each well of 96-well plates in duplicate.
(§19) 9) For TO Samples, mix to achieve a homogenous suspension for about 1 min, then immediately transfer 25 μL of each sample into well containing 125 μL of ice-cold stop solution followed by mixing.
(§20) 10) Incubate all plates at 37° C. in a 95% humidified incubator at 5% CO2 to start the reactions with constant shaking.
(§21) 11) At 15, 30, 60 and 90 min, mix samples and then transfer 25 μL of each sample at each time point to well containing 125 μL of ice-cold stop solution followed by mixing.
(§22) 12) Medium Control (MC) sample plates (labeled as TO-MC and T90-MC) are prepared in the same way as cell incubation except that medium was used instead of cell suspension.
(§23) 13) At each corresponding time point, stop the reactions by removing the plates from incubator and mixing with 125 μL of ice-cold stop solution.
(§24) 14) Vortex the plates immediately on a plate shaker at 600 rpm for 10 minutes. Then, centrifuge all sample plates at 3220×g for 20 min at 4° C.
(§25) 15) After centrifugation, 80 μL/well of supernatant in the sample plates are transferred to another set of pre-labeled 96-well plates which containing 240 μL of ultra pure water according to the plate map.
(§26) 16) Analytical plates are sealed and store at 4° C. until LC-MS/MS analysis.
(§27) The remaining percents of test articles after incubation were calculated by the follow equations:
(§28) Use the following equation of first order kinetics to calculate T1/2 and CLint:

in vitro [3] = conditions: rat, microsomes
[4] = Hepatic metabolic stability (HMS) assay, rat hepatocytes; conditions: rat, cryopreserved hepatocytes
in vitro [5] = conditions: human, microsomes
in vitro [6] = conditions: dog, microsomes
CYP3A4 = CYP3A4 (Homo sapiens (Human), UniProt P08684); assay: CYP isoforms inhibitory assay in human liver microsome, CYP3A4
Description: (§1) CYP isoforms inhibitory activities of test compounds were measured in human liver microsome.
(§2) Preparation details of these substrates are given in below table. The substrate stock solution was stored in a −20° C. freezer. Prior to use, the substrate stock solution was removed from the freezer and allowed to rise to room temperature. Then the substrate stock solution was mixed on a whirly mixer for 30 seconds.
(§3) HLMs were stored in a −80° C. freezer. Prior to use, the pooled HLM was removed from the freezer and allowed to thaw in a 37° C. water bath and then stored on wet ice.
(§4) The positive control inhibitors and their concentrations used by each isozyme are summarized below.
(§5) All samples were incubated in a 37° C. water bath, with three parallels for each concentration of the test compound and two parallels for each concentration of the positive control inhibitor. 100 μL of microsome working solution was taken and added 2 μL of the test product or positive inhibitor working solution. 2 μL solvents was added to the solvent control, and put in a water bath to pre-incubate for 10 min. After pre-incubation, 98 μL of NADPH regeneration solution was added to all samples to start the reaction. Then the mixture was put back in the water bath and incubated for a certain period of time.
(§6) The reaction was quenched by 200 μL stop solution. […]
(§7) IC50 values were determined using 3- or 4-parameter logistic equation.

[7] = system: cryopreserved hepatocytes
[8] = system: human colon cancer cell line HCT116 (MTAP KO); assay: In vivo efficacy assay, subcutaneous HCT116 MTAP KO xenograft; set-up: species or system Balb/C nude female mouse; conditions: 15 mg/kg PO/QD, 21 days, Balb/C nude mice
Description: (§8) The antitumor effect or MTAP/MTA selectivity of the compounds provided herein in the subcutaneously transplanted Balb/C nude female mouse model of human colon cancer cell line HCT116 (WT and MTAP KO) was tested.
(§9) Cell viability and cell count were determined. Cell count of the suspension was adjusted to 1×10^8 cells/mL and mixed with Matrigel in a 1:1 volume. Each mouse for this study were inoculated subcutaneously in the right front flank region with 5×10^6 tumor cells (0.1 mL) for tumor development.
(§10) The randomization started when the mean tumor size reaches approximately 100-150 mm^3. Mice inoculated with HCT116 WT cells were randomized on day 7. Mice inoculated with HCT116 MTAP KO cells were randomized on day 8. All animals were randomly allocated to 5 study groups, each group consisted of 8 animals. Randomization was performed based on randomized block design.
(§11) Tumor volume was measured twice per week in two dimensions using a caliper, and the volume was expressed in mm^3 using the formula: “V=(L×W×W)/2”, where V is tumor volume, L is tumor length (the longest tumor dimension) and W is tumor width (the longest tumor dimension perpendicular to L).

[9] = system: cryopreserved hepatocytes; remark: listed apart in the source
Description: 1) 10 mM test compounds were provided.
as §12, §13, §14, §15, §16, §17, §18, §19, §20, §21, §22, §23, §24, §25, §26, §27, §28

[10] = system: human colon cancer cell line HCT116 (WT); assay: In vivo efficacy assay, subcutaneous HCT116 WT xenograft; set-up: species or system Balb/C nude female mouse; conditions: 15 mg/kg PO/QD, 21 days, Balb/C nude mice
Description: as §8, §9, §10, §11

CYP2D6 = CYP2D6 (Homo sapiens (Human), UniProt P10635); assay: CYP isoforms inhibitory assay in human liver microsome, CYP2D6; conditions: read-out: IC50 CYP2D6, substrate dextromethorphan
Description: as §1, §2, §3, §4, §5, §6, §7

[11] = system: cryopreserved hepatocytes; assay: Hepatic metabolic stability (HMS) assay, mouse hepatocytes; conditions: for T1/2 (hepatocytes) M / CLint (liver) M: mouse hepatocytes; for T1/2 (hepatocytes) M: 1 μM test compound (3 μM positive control); for CLint (liver) M: scaled to liver; for CLint (hep) M: mouse, hepatocytes
Description: 1) 10 mM test compounds were provided.
as §12, §13, §14, §15, §16, §17, §18, §19, §20, §21, §22, §23, §24, §25, §26, §27, §28

[12] = system: cryopreserved hepatocytes; assay: Hepatic metabolic stability (HMS) assay, human hepatocytes; conditions: for T1/2 (hepatocytes) H / CLint (liver) H: human hepatocytes; for T1/2 (hepatocytes) H: 1 μM test compound (3 μM positive control); for CLint (liver) H: scaled to liver; for CLint (hep) H: human, hepatocytes
Description: 1) 10 mM test compounds were provided.
as §12, §13, §14, §15, §16, §17, §18, §19, §20, §21, §22, §23, §24, §25, §26, §27, §28

[13] = Liver microsome metabolic stability (LMS) assay, dog

Sequence of CYP3A4 (P08684 whole entry, canonical isoform): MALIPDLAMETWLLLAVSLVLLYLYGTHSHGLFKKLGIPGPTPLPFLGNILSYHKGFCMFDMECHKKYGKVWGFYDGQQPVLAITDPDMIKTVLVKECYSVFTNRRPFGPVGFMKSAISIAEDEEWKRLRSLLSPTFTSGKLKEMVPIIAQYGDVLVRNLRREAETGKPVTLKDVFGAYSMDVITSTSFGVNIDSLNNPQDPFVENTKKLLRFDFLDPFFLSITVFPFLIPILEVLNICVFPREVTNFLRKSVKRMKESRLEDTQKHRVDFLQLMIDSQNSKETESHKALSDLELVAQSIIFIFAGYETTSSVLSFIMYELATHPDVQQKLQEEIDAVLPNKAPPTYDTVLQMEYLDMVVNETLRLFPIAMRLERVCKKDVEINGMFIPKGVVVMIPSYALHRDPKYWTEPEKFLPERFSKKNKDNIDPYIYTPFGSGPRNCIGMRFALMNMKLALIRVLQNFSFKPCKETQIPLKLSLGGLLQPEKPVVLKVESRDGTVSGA
Sequence of CYP2D6 (P10635 whole entry, canonical isoform): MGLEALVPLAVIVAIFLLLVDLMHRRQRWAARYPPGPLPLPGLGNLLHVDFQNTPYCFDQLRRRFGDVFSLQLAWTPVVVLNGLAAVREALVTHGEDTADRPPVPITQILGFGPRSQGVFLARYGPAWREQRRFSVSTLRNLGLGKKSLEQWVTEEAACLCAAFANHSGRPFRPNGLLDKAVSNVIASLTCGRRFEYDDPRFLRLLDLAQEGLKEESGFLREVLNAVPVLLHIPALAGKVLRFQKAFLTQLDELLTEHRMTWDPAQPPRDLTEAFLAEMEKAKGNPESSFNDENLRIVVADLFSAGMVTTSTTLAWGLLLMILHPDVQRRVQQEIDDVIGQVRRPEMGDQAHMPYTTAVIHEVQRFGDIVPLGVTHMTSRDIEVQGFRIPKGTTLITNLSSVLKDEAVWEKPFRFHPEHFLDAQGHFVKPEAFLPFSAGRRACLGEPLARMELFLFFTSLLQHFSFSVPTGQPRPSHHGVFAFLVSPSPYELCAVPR

| Structure (SMILES) | Cl ([1]; IV 1.0 mg/kg) [mL/min/kg] | AUC0-t ([1]; PO 10 mg/kg) [ng·h/mL] | T1/2 ([1]; PO 10 mg/kg) [h] | C8 h ([1]; PO 10 mg/kg, plasma) [ng/mL] | C24 h ([1]; PO 10 mg/kg, plasma) [ng/mL] | Cmax ([1]; PO 10 mg/kg, plasma) [ng/mL] | AUC0-t ([1]; PO 30 mg/kg) [ng·h/mL] | T1/2 ([1]; PO 30 mg/kg) [h] | C8 h ([1]; PO 30 mg/kg, plasma) [ng/mL] | C24 h ([1]; PO 30 mg/kg, plasma) [ng/mL] | Cmax ([1]; PO 30 mg/kg, plasma) [ng/mL] | T1/2 of LMS, R (rat, microsomes) [h] | Tumor growth inhibition (TGI) HCT 116 MTAP KO [8] [%] | Tumor growth inhibition (TGI) HCT 116 WT [10] [%] | T1/2 (hepatocytes) M [11] [h] | CLint (liver) M [11] [mL/min/kg] | CLint (hep) M [11] [μL/min/10^6] | T1/2 (hepatocytes) H [12] [h] | CLint (liver) H [12] [mL/min/kg] | CLint (hep) H [12] [μL/min/10^6] | also measured |
| --- | --- | --- | --- | --- | --- | --- | --- | --- | --- | --- | --- | --- | --- | --- | --- | --- | --- | --- | --- | --- | --- |
| CN(C(=O)c1ccc2nc(N)c3cncn3c2c1)[C@@H]1COc2cc(C(F)(F)F)ccc21 [Compound 12] | – | – | – | – | – | – | – | – | – | – | – | – | – | – | – | – | – | – | – | – | clearance ([1]; male, ICR, mouse, plasma, IV 1.0 mg/kg): 3.48 mL/min/kg; half-life at 1 μM [2]: 2.12 h; half-life at 1 μM (in vitro [3]): > 2.42 h; half-life at 1 μM [4]: 2.26 h; half-life at 1 μM (in vitro [5]): > 2.42 h; half-life at 1 μM (in vitro [6]): > 2.42 h |
| CN(C(=O)c1ccc2nc(N)c3cncn3c2c1)C1COc2cc(C(F)(F)F)ccc21 (stereo not drawn) [Compound 17] | 3.10 | 50800 | 5.07 | 2287 | 257 | 4627 | 174589 | 4.87 | 8260 | 860 | 16233 | >2.42 | −11 | 66 | – | – | – | – | – | – | AUC0-t ([1]; IV 1.0 mg/kg): 5219 ng·h/mL; T1/2 ([1]; IV 1.0 mg/kg): 5.05 h; Cmax ([1]; IV 1.0 mg/kg, plasma): 965 ng/mL; Mean Concentration In brain ([1]; 2 h): 3308 ± 1056 ng/g; Mean Concentration In plasma ([1]; 2 h): 14843 ± 4945 ng/mL; Mean Concentration In brain ([1]; 4 h): 2668 ± 224 ng/g; Mean Concentration In plasma ([1]; 4 h): 13667 ± 1365 ng/mL; B/P ratio [1]: 21%; IC50 (CYP3A4; microsomes): 27.3 µM; IC50 (CYP3A4; read-out: IC50 CYP3A4 (midazolam), human liver microsome, substrate midazolam): > 30 µM; CLint (liver) R [7]: 49.8 mL/min/kg; CLint (hep) R ([7]; rat): 10.6 μL/min/10^6; T1/2 (hepatocytes) R ([7]; rat): 2.172 h; CLint (liver) H [9]: 20.2 mL/min/kg; CLint (hep) H ([9]; human): 7.3 μL/min/10^6; T1/2 (hepatocytes) H ([9]; human): 3.18 h; IC50 (CYP2D6): > 30 µM |
| CN(C(=O)c1cc2c(cn1)nc(N)c1cncn12)C1COc2cc(C(F)(F)F)ccc21 (stereo not drawn) [Compound 19] | 4.38 | 32782 | 4.88 | 1833 | 178 | 2620 | 94249 | 5.26 | 4817 | 540 | 8117 | >2.42 | 11 | 74 | 2.35 | 116.7 | 9.8 | >3.613 | <17.8 | <6.4 | CLint (liver) R (microsomes): <17.3 mL/min/kg; CLint (mic) R (rat, microsomes): <9.6 µL/min/mg |
| CN(C(=O)c1cc2c(cn1)nc(N)c1cncn12)C1COc2cc(C(F)(F)F)ccc21 (stereo not drawn) [Compound 21] | 3.94 | 43397 | 6.67 | 2537 | 415 | 2820 | 124997 | 6.45 | 6880 | 1257 | 8710 | >2.42 | 11 | 59 | 2.582 | 106.3 | 8.9 | >3.613 | <17.8 | <6.4 | CLint (liver) R (microsomes): <17.3 mL/min/kg; CLint (mic) R (rat, microsomes): <9.6 µL/min/mg |
| CN(C(=O)c1cc2c(cn1)nc(N)c1cncn12)C1CC(F)(F)c2cc(C(F)(F)F)ccc21 (stereo not drawn) [Compound 24] | 2.41 | 44942 | 4.41 | 2598 | 186 | 3355 | – | – | – | – | – | – | 3 | 62 | 1.27 | 216.4 | 18.2 | >3.613 | <17.8 | <6.4 | AUC0-t ([1]; PO 50 mg/kg): 130284 ng·h/mL; T1/2 ([1]; PO 50 mg/kg): 3.23 h; C8 h ([1]; PO 50 mg/kg, plasma): 4983 ng/mL; C24 h ([1]; PO 50 mg/kg, plasma): 178 ng/mL; Cmax ([1]; PO 50 mg/kg, plasma): 15733 ng/mL; Mean Concentration In brain ([1]; 2 h): 3132 ± 1647 ng/g; Mean Concentration In plasma ([1]; 2 h): 6327 ± 2604 ng/mL; Mean Concentration In brain ([1]; 4 h): 3084 ± 145 ng/g; Mean Concentration In plasma ([1]; 4 h): 5983 ± 361 ng/mL; B/P ratio [1]: 51%; CLint (mic) R (rat liver microsome): <9.6 µL/min/mg; T1/2 of LMS, R (rat liver microsome 0.5 mg protein/mL, 1 μM, NADPH): >2.42 h; CLint (liver) R (rat liver microsome, scaled to liver): <17.3 mL/min/kg; CLint (mic) D ([13]; dog liver microsome): <9.6 µL/min/mg; T1/2 of LMS, D ([13]; dog liver microsome 0.5 mg protein/mL, 1 μM, NADPH): >2.42 h; CLint (liver) D ([13]; dog liver microsome, scaled to liver): <13.8 mL/min/kg |
